Reference: ChEMBL document CHEMBL1201862, “PubChem BioAssay data set” (2004)
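96-well plates; 48 h exposure; 5 concentrations. Endpoints by linear interpolation between flanking doses. Not reached: highest tested concentration assigned. At the GI50, growth is halved.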 Active and inactive are the calls of the source. No stated cut-off is given here; in the data, active = GI50 up to about 1.1 µM and inactive = higher.

Legend:
Assay in all cases: NCI anticancer screen, dose series, 48 h
A498 = system: A498
A549 = system: A549
COLO 205 = system: COLO 205
EKVX = system: EKVX
HCC 2998 = system: HCC 2998
HL-60 = system: HL-60
HOP-62 = system: HOP-62
HOP-92 = system: HOP-92
Hs-578T = system: Hs-578T
M14 = system: M14
NCI-H23 = system: NCI-H23
NCI-H522 = system: NCI-H522
OVCAR-4 = system: OVCAR-4
PC-3 = system: PC-3
RPMI-8226 = system: RPMI-8226
RXF 393 = system: RXF 393
SK-MEL-28 = system: SK-MEL-28
SW-620 = system: SW-620
UACC-257 = system: UACC-257
UO-31 = system: UO-31

Measured: GI50

O=[N+]([O-])c1ccc(Sc2c3ccccc3nc3ccccc23)nc1
inactive: A498 18.5 µM | A549 26.2 µM | COLO 205 2.37 µM | EKVX 17 µM | HCC 2998 15.7 µM | HL-60 4.48 µM | HOP-62 23.3 µM | HOP-92 1.95 µM | Hs-578T 19.4 µM | M14 3.22 µM | NCI-H23 6.84 µM | NCI-H522 2.73 µM | OVCAR-4 4.69 µM | PC-3 14.8 µM | RPMI-8226 2.21 µM | RXF 393 3.28 µM | SK-MEL-28 4.75 µM | SW-620 2.08 µM | UACC-257 7.06 µM | UO-31 5.08 µM

COC(=O)[C@@H]1C[C@H]([Se]c2ccccc2)CN1C(=O)OCc1ccccc1
inactive: A498 31.2 µM | A549 29.6 µM | COLO 205 23.4 µM | EKVX 39.2 µM | HCC 2998 87.9 µM | HL-60 22.6 µM | HOP-62 98.6 µM | HOP-92 33.7 µM | Hs-578T 64.9 µM | M14 29.8 µM | NCI-H23 20.4 µM | NCI-H522 46.2 µM | OVCAR-4 24.8 µM | PC-3 30.3 µM | RPMI-8226 24.8 µM | RXF 393 20.2 µM | SK-MEL-28 24 µM | SW-620 52.6 µM | UACC-257 31.4 µM | UO-31 24.4 µM

Cc1ccc(C(CCO)CCO)nc1
inactive: A498 > 100 µM | A549 > 100 µM | COLO 205 > 100 µM | EKVX > 100 µM | HCC 2998 > 100 µM | HL-60 > 100 µM | HOP-62 > 100 µM | HOP-92 > 100 µM | Hs-578T > 100 µM | M14 > 100 µM | NCI-H23 > 100 µM | NCI-H522 > 100 µM | OVCAR-4 > 100 µM | PC-3 > 100 µM | RPMI-8226 > 100 µM | RXF 393 > 100 µM | SK-MEL-28 > 100 µM | SW-620 > 100 µM | UACC-257 > 100 µM | UO-31 > 100 µM

COC(=O)C1=C(C(=O)OC)C2(c3ccccc3)c3ccccc3C(=O)C1N2C1CCCCC1 (stereo not given)
inactive: A498 > 66.1 µM | A549 17.7 µM | COLO 205 16.8 µM | EKVX 55.6 µM | HCC 2998 23.2 µM | HL-60 3.1 µM | HOP-62 > 68.9 µM | HOP-92 > 100 µM | Hs-578T 40.9 µM | M14 43.3 µM | NCI-H23 > 52.5 µM | NCI-H522 34.6 µM | OVCAR-4 58.2 µM | PC-3 10.6 µM | RPMI-8226 6.9 µM | RXF 393 33.7 µM | SK-MEL-28 > 62.1 µM | SW-620 41.3 µM | UACC-257 11.9 µM | UO-31 13 µM
